Experimental data taken from patent US8399502B2, “Analogs of indole-3-carbinol and their use as agents against infection” (priority 2008, dated 2013).
Converted amounts (≈) assume the structure as drawn.

Key:
Format in all cases: cell-based
[1] = test system: Vancomycin-resistant Enterococcus faecalis (VRE); assay: MIC determination; conditions: Table 3
[2] = test system: Vancomycin-Sensitive Enterococcus faecalis (VSE); assay: MIC determination; conditions: Table 3
[3] = test system: Acinetobacter baumannii (AB); assay: MIC determination; conditions: Table 3
[4] = test system: Shigella dysenteriae (SD); assay: MIC determination; conditions: Table 3
[5] = test system: Listeria monocytogenes (LM); assay: MIC determination; conditions: Table 3
[6] = test system: methicillin-susceptible Staphylococcus aureus (MSSA); assay: microbe, parasite or virus in culture; conditions: read-out: MIC MSSA
[7] = test system: Francisella tularensis (FT; Gram-negative); assay: microbe, parasite or virus in culture; conditions: read-out: MIC FT
[8] = test system: methicillin-resistant Staphylococcus aureus (MRSA); assay: microbe, parasite or virus in culture; conditions: read-out: MIC MRSA
[9] = test system: Bacillus anthracis (BA; Gram-positive); assay: microbe, parasite or virus in culture; conditions: read-out: MIC BA
[10] = test system: penicillin-susceptible S. pneumoniae (PSSP); assay: microbe, parasite or virus in culture; conditions: Streptococcus pneumoniae, read-out: MIC PSSP
[11] = test system: penicillin-resistant S. pneumoniae (PRSP); assay: microbe, parasite or virus in culture; conditions: Streptococcus pneumoniae, read-out: MIC PRSP

Row | SMILES | MIC [1] [µg/mL] | MIC [2] [µg/mL] | MIC [3] [µg/mL] | MIC [4] [µg/mL] | MIC [5] [µg/mL] | MIC [6] [µg/mL] | MIC [7] [µg/mL] | MIC [8] [µg/mL] | MIC [9] [µg/mL] | MIC [10] [µg/mL] | MIC [11] [µg/mL]
1 | OC1CCN(CCCOc2c3[nH]c4ccc(Cl)cc4c3cc3c2[nH]c2ccc(Cl)cc23)CC1 [drawing 267] | 2 (≈ 4.15 µM) | 4 (≈ 8.29 µM) | 4 (≈ 8.29 µM) | 8 (≈ 16.6 µM) | 1 (≈ 2.07 µM) | – | – | – | – | – | –
2 | N=C(N)NCCCOc1c2[nH]c3ccc(F)cc3c2cc2c1[nH]c1ccc(F)cc12 [drawing 268] | 2 (≈ 4.91 µM) | 8 (≈ 19.6 µM) | 8 (≈ 19.6 µM) | 8 (≈ 19.6 µM) | 4 (≈ 9.82 µM) | – | – | – | – | – | –
3 | Fc1ccc2[nH]c3c(OCCCNC4=NCCN4)c4[nH]c5ccc(F)cc5c4cc3c2c1 [drawing 270] | 1 (≈ 2.31 µM) | 4 (≈ 9.23 µM) | 4 (≈ 9.23 µM) | 8 (≈ 18.5 µM) | 2 (≈ 4.61 µM) | – | – | – | – | – | –
4 | CN(C)CCOc1c2[nH]c3ccc(F)cc3c2cc2c1[nH]c1ccc(F)cc12 [drawing 265] | 2 (≈ 5.27 µM) | 1 (≈ 2.64 µM) | 4 (≈ 10.5 µM) | 8 (≈ 21.1 µM) | 2 (≈ 5.27 µM) | – | – | – | – | – | –
5 | Cc1c2[nH]c3ccccc3c2cc2c1[nH]c1ccccc12 [drawing 263] | – | – | – | – | – | 2 (≈ 7.4 µM) | ≤ 0.5 | 4 (≈ 14.8 µM) | 1 (≈ 3.7 µM) | 1 (≈ 3.7 µM) | 1 (≈ 3.7 µM)
6 | C=C(c1c[nH]c2ccccc12)c1c[nH]c2ccccc12 | – | – | – | – | – | 8 (≈ 31 µM) | 16 (≈ 61.9 µM) | 8 (≈ 31 µM) | 8 (≈ 31 µM) | 4 (≈ 15.5 µM) | 2 (≈ 7.74 µM)
7 | N=C(N)NCCCOc1c2[nH]c3ccc(Cl)cc3c2cc2c1[nH]c1ccc(Cl)cc12 [drawing 266] | 2 (≈ 4.54 µM) | 4 (≈ 9.08 µM) | 4 (≈ 9.08 µM) | 4 (≈ 9.08 µM) | 1 (≈ 2.27 µM) | – | – | – | – | – | –
8 | CCOC(=O)c1ccc2[nH]cc(Cc3c(C)[nH]c4ccccc34)c2c1 | – | – | – | – | – | > 64 | 4 (≈ 12 µM) | > 64 | 8 (≈ 24.1 µM) | 2 (≈ 6.02 µM) | 8 (≈ 24.1 µM)
9 | Fc1ccc2[nH]c3c(O[C@@H]4CCNC4)c4[nH]c5ccc(F)cc5c4cc3c2c1 [drawing 269] | 1 (≈ 2.65 µM) | 2 (≈ 5.3 µM) | 4 (≈ 10.6 µM) | 4 (≈ 10.6 µM) | 2 (≈ 5.3 µM) | – | – | – | – | – | –
